Reference: patent EP0230023B1, “Pharmaceutical compositions for the enhancement of wound healing” (MARION MERRELL DOW INC., priority 1985, dated 1987)

Assays:
granulation tissue [1] = experiment: Subcutaneous Ivalon sponge implantation, histological analysis of granulation tissue formation; type: in vivo, Sprague-Dawley rats; details: score on the 0-4 scale; tested in a similar manner to collagen/sucrose octasulfate; potassium salts
Protocol: By means of subcutaneous implantation of Ivalon sponges the phase of granulation tissue formation in the repair process can be evaluated. Following a vigorous cleanup procedure the sponge material evokes only minimal inflammatory response. Sterile sponges prepared as set forth in Example 12 were injected with a 50 µl suspension of collagen/sucrose octasulfate suspension prepared as in Example 12. […] The sponges were surgically implanted into 350-500 g, male Sprague-Dawley rats. Before the implantation procedure three rats were anesthetized and their dorsal surfaces shaved and wiped with Predodyne (West Chemical Products, Lynbrook, N.Y.). Six 6 mm incisions were cut in groups of two (one on each side of the vertebral column rostrally, centrally and caudally), spaced equi-distant from each other between the pectoral and pelvic girdles on the dorsal surface. At each incision a pocket was made between the panniculus carnosus and the dermis and two sponges inserted into it, one rostrally and the other caudally; a total of 12 sponges were thus implanted in each animal. The position of each test preparation was alternated between the rostral, central and caudal positions to control the variation due to anatomical location. The incisions were closed with 11-mm Michel wound clips (Propper, Long Island City, N.Y.). Seven days following implantation the animals were sacrificed and the sponges surgically removed with their adhered connective tissue capsules. Controls, sponges injected with either PBS or collagen only were treated in a similar manner. In all, approximately 120 sponges per group were used in the study and randomly selected for biochemical and histologic analysis. The sponges were fixed in formalin and embedded in either plastic or Paraplast following dehydration. Sections were stained with hemotocylin and eosin, trichrome, silver or PAS. […] Mesenchymal cell infiltration was also scored on a predetermined scale from 0-4. […] Although the whole sponge area was used for analysis we noted that the most striking differences between the various treatments were evident in the center of the sponge. Therefore, the histologic appearance of the central zone was selected for presentation.

granulation tissue [2] = experiment: as above; type: in vivo, Sprague-Dawley rats; details: no collagen
pressure ulcer = experiment: Clinical double-blind dose-response trial in pressure ulcers; type: in vivo, patients; details: for Results: twice daily
Protocol: Five patients were subjected to a dose-response trial using sucrose octasulfate in water. The test was a double-blind trial with four treatment arms, 0.1, 1.0, or 10mg/ml or placebo (sterile water for irrigation). Patients were entered following debridement of the study pressure ulcer and a gauze sponge was saturated with sucrose octasulfate solution (i.e. sucrose octasulfate in sterile water vehicle) or placebo and packed into the ulcer crater, then covered with biobrane dressing to keep the area moist. Treatments were applied twice daily for a 30 day interval for four patients and for three weeks for the fifth patient.
The patient population was bedridden comatose adults with chronic ulcers having failed with some form of previous treatment(s). The patients were kept on the same ward as they had been during months prior to the trials so nursing care was uniform prior to and during the study. Thus, any response is favourable. The first four cases are nearly uniform in that three of four treatment ulcers were trochanteric.

bone fracture = experiment: Repair of bone fractures (fractured ulna, loss of minerals on decalcification, histology); type: in vivo, guinea pigs; details: for after decalcification / before decalcification: ten days after surgery
Protocol: The ulnae of 18 guinea pigs were exposed surgically and then fractured at the midshaft, using a very fine dental burr as a saw. The intact radius served as an immobilization splint. The animals were divided into six groups, three in each, according to the treatment at the fracture site, which was as follows: • Group 1. Untreated controls • Group 2. Sucrose octasulfate 1.0 mg/ml instilled at the fracture site with a syringe • Group 3. Sucrose octasulfate 4.0 mg/ml • Group 4. Collagen (a native 0.25% neutral salt solution) • Group 5. Collagen plus sucrose octasulfate 1.0 mg/ml • Group 6. Collagen plus sucrose octasulfate 4.0 mg/ml
The animals were sacrified ten days after surgery, and the fractured bones were dissected and processed for both histologic and biochemical analyses.

rabbit corneas = experiment: Rabbit cornea assay for angiogenesis; type: in vivo
Protocol: This may offer an explanation for the dense vascular bed that characterized the granulation tissue in the in-vivo experiments. Sucrose octasulate at concentrations of 0.1 to 100 µg/ml was encapsulated in Hydron and implanted in rabbit corneas. The method used was that described in Surgery 96:48-54, 1984. The […] solution (sucrose octasulfate or PBS) was mixed with an equal volume of Hydron and allowed to polymerize under reduced pressure. […] Eyes were evaluated at days 1 through 14 post-implantation for gross inflammation and, as described by Hunt, et al, in Surgery 96:48-54, 1984, for angiogenesis. Corneal neovascularization was graded on a scale of 0-4+ (integers only being assigned). Zero denotes a normal eye with no ingrowth on limbal vessels into the corneal stroma; 1+, up to 1 mm of capillary ingrowth in a localized arc adjacent to the injection site; 2+, […] ingrowth; 3+, 2-3 mm ingrowth; and 4+, 3 mm or greater ingrowth in a wide arc along the limbal edge toward the injection site. […] To ascertain that the observed angiogenesis was not secondary to an inflammatory process some eyes with a positive response were removed and stained with H&E and a nonspecific esterase stain as early as two days after implantation.

[3] = sucrose octasulfate 1 mg/ml at fracture site
[4] = sucrose octasulfate 4 mg/ml at fracture site

- hemorrhage in sponge (granulation tissue [2]; 10.0 mg/ml sucrose octasulfate in Hydron): local hemorrhage
SMILES: O=S(=O)([O-])OC[C@H]1O[C@@](COS(=O)(=O)[O-])(O[C@H]2O[C@H](COS(=O)(=O)[O-])[C@@H](OS(=O)(=O)[O-])[C@H](OS(=O)(=O)[O-])[C@H]2OS(=O)(=O)[O-])[C@@H](OS(=O)(=O)[O-])[C@@H]1OS(=O)(=O)[O-].[K+].[K+].[K+].[K+].[K+].[K+].[K+].[K+] [Sucrose Octasulfate, potassium sucrose octasulfate]
- Sponge (granulation tissue [1]): 4
- histologic appearance of sponge (granulation tissue) (granulation tissue [2]; 50 µl of Hydron containing either 1.0 mg/ml or 0.1 mg/ml sucrose octasulfate): formation of granulation tissue densely populated with fibroblasts and highly vascularized with new capillary growth
- Depth (prestudy) (pressure ulcer; Patient 001, 10 mg/ml): 0.5 cm
- Results (pressure ulcer; Patient 001, 10 mg/ml in water, 30 days): no reduction in ulcer depth
- Depth (after treatment) (pressure ulcer; Patient 001, 10 mg/ml, 30 days): 0.5 cm
- Depth (prestudy) (pressure ulcer; Patient 002, 1 mg/ml): 3.0 cm
- Results (pressure ulcer; Patient 002, 1 mg/ml in water, 30 days): reduction in ulcer depth
- Depth (after treatment) (pressure ulcer; Patient 002, 1 mg/ml, 30 days): 1.5 cm
- Depth (prestudy) (pressure ulcer; Patient 003, 0.1 mg/ml): 0.5 cm
- Results (pressure ulcer; Patient 003, 0.1 mg/ml in water, 30 days): some reduction in ulcer depth
- Depth (after treatment) (pressure ulcer; Patient 003, 0.1 mg/ml, 30 days): 0.3 cm
- Depth (prestudy) (pressure ulcer; Patient 005, 10 mg/ml): 2.8 cm
- Results (pressure ulcer; Patient 005, 10 mg/ml in water, three weeks): reduction in ulcer depth
- Depth (after treatment) (pressure ulcer; Patient 005, 10 mg/ml, after 3 weeks of treatment): 1.6 cm
- after decalcification (bone fracture; [3]): 2.20
- before decalcification (bone fracture; [3]): 7.00
- decrease (bone fracture; sucrose octasulfate 1 mg/ml, loss of minerals following decalcification): 4.80 mg
- decrease (bone fracture; sucrose octasulfate 1 mg/ml, percent loss of minerals following decalcification): 68.6%
- after decalcification (bone fracture; [4]): 2.60
- before decalcification (bone fracture; [4]): 5.90
- decrease (bone fracture; sucrose octasulfate 4 mg/ml, loss of minerals following decalcification): 3.30 mg
- decrease (bone fracture; sucrose octasulfate 4 mg/ml, percent loss of minerals following decalcification): 55.9%
- extent of angiogenesis (rabbit corneas; 0.1 µg/ml): negative
- No. Positive Responses (rabbit corneas; 0.1 µg/ml in Hydron, 5 corneas implanted): 0
- No. Positive Responses (rabbit corneas; 1 µg/ml in Hydron, 6 corneas implanted): 1
- No. Positive Responses (rabbit corneas; 10 µg/ml in Hydron, 5 corneas implanted): 4
- No. Positive Responses (rabbit corneas; 100 µg/ml in Hydron, 9 corneas implanted): 8
- Angiogenesis (rabbit corneas; grade on scale 0-4+ in rabbit cornea, potassium salts): 4
- angiogenic response (rabbit corneas; implantation of 10 and 100 µg/ml): most potent angiogenic response
- extent of angiogenesis (rabbit corneas; lower concentration, 1.0 g/ml as printed): decreased
